{
  "source": "patent US7598046B2",
  "about": "(priority 2003, dated 2009)",
  "system": "PrP^Sc (conversion of PrP^C into PrP^Sc)",
  "type": "biochemical, hamster",
  "conditions": "for prion replication in vitro (PMCA signal): 30 min at 4° C., without cyclodextrin, 3200-fold and 12800-fold dilutions of scrapie brain homogenate",
  "note": "Where two headings read alike, the source gives them in different places.",
  "data": [
    {"substance": "Apolipoprotein B", "values": [
      {"measurement": "prion replication in vitro (PMCA signal)", "setting": "8 and 16 μg hApo B", "value": "increase"}
    ]},
    {"substance": "Apolipoprotein E", "values": [
      {"measurement": "prion replication in vitro (PMCA signal)", "setting": "1 and 10 μg hApo E", "value": "increase"}
    ]},
    {"substance": "methyl-β-cyclodextrin", "values": [
      {"measurement": "prion replication (PrP^Sc signal after PMCA): complete inhibition observed or not", "setting": "5 mM methyl-β-cyclodextrin, normal brain homogenate treated 30 min, 10 cycles of PMCA, Western blot after PK", "value": "not"},
      {"measurement": "prion replication (PrP^Sc signal after PMCA)", "setting": "10 mM methyl-β-cyclodextrin, normal brain homogenate treated 30 min, 10 cycles of PMCA, Western blot after PK", "value": "complete inhibition"},
      {"measurement": "prion replication (PrP^Sc signal after PMCA)", "setting": "20 mM methyl-β-cyclodextrin, normal brain homogenate treated 30 min, 10 cycles of PMCA, Western blot after PK", "value": "complete inhibition"}
    ]}
  ]
}
